The source of these data is patent publication US10894807B2 (Siemens Medical Solutions USA, Inc., priority 2011, dated 2021).

pKi: −log10 of the molar value. Values joined by “and” are separate entries in the source; they are usually repeats but may differ in a detail not shown here. Equal entries are not always repeated.

The assay concerns the target human PSMA (Homo sapiens (Human), UniProt Q04609). In words: Enzymatic assay for in vitro evaluation of PSMA inhibitors (fluorescent assay of PSMA activity, NAAG substrate, OPA detection of glutamate). The class given is biochemical.

A word on the pKi: it is the negative decadic logarithm of the Ki, by convention in mol/L. A higher pKi goes with a low Ki.

Chain of human PSMA (Q04609 whole entry): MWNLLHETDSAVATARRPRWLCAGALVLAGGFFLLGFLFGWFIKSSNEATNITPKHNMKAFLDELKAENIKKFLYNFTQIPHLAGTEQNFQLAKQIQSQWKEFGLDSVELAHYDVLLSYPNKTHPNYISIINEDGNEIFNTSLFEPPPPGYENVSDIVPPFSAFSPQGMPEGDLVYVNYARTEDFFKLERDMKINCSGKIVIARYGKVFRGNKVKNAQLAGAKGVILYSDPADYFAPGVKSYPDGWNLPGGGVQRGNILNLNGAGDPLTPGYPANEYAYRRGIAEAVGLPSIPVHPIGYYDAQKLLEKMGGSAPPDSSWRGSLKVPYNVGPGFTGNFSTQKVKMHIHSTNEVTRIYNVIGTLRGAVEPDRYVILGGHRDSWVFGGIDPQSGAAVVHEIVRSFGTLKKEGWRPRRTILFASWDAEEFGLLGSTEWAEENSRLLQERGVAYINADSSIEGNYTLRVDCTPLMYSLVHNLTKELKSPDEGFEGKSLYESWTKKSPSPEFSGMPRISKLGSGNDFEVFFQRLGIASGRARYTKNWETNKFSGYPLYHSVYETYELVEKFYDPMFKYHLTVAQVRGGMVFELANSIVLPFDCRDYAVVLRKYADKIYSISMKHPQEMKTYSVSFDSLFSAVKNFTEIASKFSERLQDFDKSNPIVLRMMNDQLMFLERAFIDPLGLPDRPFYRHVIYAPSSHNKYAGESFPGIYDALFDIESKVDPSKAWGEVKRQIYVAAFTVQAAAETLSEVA

Take `O=C(O)CC[C@H](NC(=O)N[C@@H](CCCCNc1ccc([N+](=O)[O-])c(F)n1)C(=O)O)C(=O)O` [P269, (S)-2-(3-((S)-1-Carboxy-5-((6-fluoro-5-nitropyridin-2-yl)amino)pentyl)ureido)pentanedioic Acid]: the “PSMA Blkg % (1.0 μM)” value is listed as 66%.

For the compound `O=C(O)CC[C@H](NC(=O)N[C@@H](CCCCNc1cc(NCCOCCn2cc(CCCF)nn2)ncn1)C(=O)O)C(=O)O` [P271, (S)-2-(3-((S)-1-Carboxy-5-((6-((2-(2-(4-(3-fluoropropyl)-1H-1,2,3-triazol-1-yl)ethoxy)ethyl)amino)pyrimidin-4-yl)amino)pentyl)ureido)pentanedioic Acid], the pKi is 9.10 and the “PSMA Blkg % (1.0 μM)” value is recorded as 98%.

`O=C(O)CC[C@H](NC(=O)N[C@@H](CC1CCN(C(=O)c2cc(C(=O)N3CCC(C[C@H](NC(=O)N[C@@H](CCC(=O)O)C(=O)O)C(=O)O)CC3)cc(-n3cc(CCCF)nn3)c2)CC1)C(=O)O)C(=O)O` [P272, (S)-2-(3-((S)-1-Carboxy-2-(1-(3-(4-((S)-2-carboxy-2-(3-((S)-1,3-dicarboxypropyl)-ureido)ethyl)piperidine-1-carbonyl)-5-(4-(3-fluoropropyl)-1H-1,2,3-triazol-1-yl)benzoyl)piperidin-4-yl)ethyl)ureido)pentanedioic Acid]: the pKi was 8.60 and the “PSMA Blkg % (1.0 μM)” value was found to be 97%.

For the compound `O=C(O)CC[C@H](NC(=O)NC(CCCCNc1nc(NCCN(CCNC(=O)Cn2cc(CCCF)nn2)CCNc2ccc([N+](=O)[O-])c(NCCCCC(NC(=O)N[C@@H](CCC(=O)O)C(=O)O)C(=O)O)n2)ccc1[N+](=O)[O-])C(=O)O)C(=O)O` (stereo partly drawn) [P273, (2S,2′S)-2,2′-(((((1S,1′S)-((6,6′-((((2-(2-(4-(3-Fluoropropyl)-1H-1,2,3-triazol-1-yl)acetamido)ethyl)azanediyl)bis(ethane-2,1-diyl))bis(azanediyl))bis(3-nitropyridine-6,2-diyl))bis(azanediyl))bis(1-carboxypentane-5,1-diyl))bis(azanediyl))bis(carbonyl))bis(azanediyl))dipentanedioic Acid], the pKi is 9.70 and the “PSMA Blkg % (1.0 μM)” value is recorded as 97%. With `O=C(O)CC[C@H](NC(=O)N[C@@H](CCCCNC(=O)CC(CC(=O)NCCCC[C@H](NC(=O)N[C@@H](CCC(=O)O)C(=O)O)C(=O)O)NC(=O)Cn1cc(CCCF)nn1)C(=O)O)C(=O)O` [P276, (3S,7S,23S,27S)-15-(2-(4-(3-Fluoropropyl)-1H-1,2,3-triazol-1-yl)acetamido)-5,13,17,25-tetraoxo-4,6,12,18,24,26-hexaazanonacosane-1,3,7,23,27,29-hexacarboxylic Acid], the pKi was 8.89. Same read-out and setting: in the case of `O=C(O)CC[C@H](NC(=O)N[C@@H](CCc1nc(-c2ccc([N+](=O)[O-])cc2)co1)C(=O)O)C(=O)O` [P279, (S)-2-(3-((S)-1-Carboxy-3-(4-(4-nitrophenyl)oxazol-2-yl)propyl)ureido)pentanedioic Acid] it was 8.80; in that of `O=C(O)CC[C@H](NC(=O)N[C@@H](Cc1ccc(NC(=O)CCC(CCC(=O)Nc2ccc(C[C@H](NC(=O)N[C@@H](CCC(=O)O)C(=O)O)C(=O)O)cc2)NC(=O)c2ccc(-n3cc(CCCF)nn3)cc2)cc1)C(=O)O)C(=O)O` [P280, (2S,2′S)-2,2′(((((1S,1′S)(((4-(4-(4-(3-Fluoropropyl)-1H-1,2,3-triazol-1-yl)-benzamido)-heptanedioyl)-bis(azanediyl))-bis(4,1-phenylene))-bis(1-carboxyethane-2,1-diyl))-bis(azanediyl))-bis(carbonyl))-bis(azanediyl))-dipentanedioic Acid], 9.05; in that of `O=C(O)CC[C@H](NC(=O)N[C@@H](CCCCNC(=O)CCC(CCC(=O)NCCCC[C@H](NC(=O)N[C@@H](CCC(=O)O)C(=O)O)C(=O)O)NC(=O)c1ccc(-n2cc(CCCF)nn2)cc1)C(=O)O)C(=O)O` [P282, (3S,7S,25S,29S)-16-(4-(4-(3-Fluoropropyl)-1H-1,2,3-triazol-1-yl)benzamido)-5,13,19,27-tetraoxo-4,6,12,20,26,28-hexaazahentriacontane-1,3,7,25,29,31-hexacarboxylic Acid], 8.96. On to `O=C(O)CC[C@H](NC(=O)N[C@@H](CCCCNC(=O)c1cc(NC(=O)Cn2cc(CCCF)nn2)cc(C(=O)NCCCC[C@H](NC(=O)N[C@@H](CCC(=O)O)C(=O)O)C(=O)O)c1)C(=O)O)C(=O)O` [P283, (2S,2′S)-2,2′-(((((1S,1′S)-((5-(2-(4-(3-fluoropropyl)-1H-1,2,3-triazol-1-yl)acetamido)isophthaloyl)bis(azanediyl))bis(1-carboxypentane-5,1-diyl))bis(azanediyl))bis(carbonyl))bis(azanediyl))dipentanedioic Acid], for which the pKi was 9.05 and the “PSMA Blkg % (1.0 μM)” value came to 98%. With `O=C(O)CC[C@H](NC(=O)N[C@@H](CC1CCN(C(=O)c2cc(C(=O)O)cc(-n3cc(CCCF)nn3)c2)CC1)C(=O)O)C(=O)O` [P284, (S)-2-(3-((S)-1-Carboxy-2-(1-(3-carboxy-5-(4-(3-fluoropropyl)-1H-1,2,3-triazol-1-yl)benzoyl)piperidin-4-yl)ethyl)ureido)pentanedioic Acid], the “PSMA Blkg % (1.0 μM)” value worked out at 96%. Compound `O=C(O)CCC(NC(=O)N[C@@H](Cc1ccc(NC(=O)CCC(CCC(=O)Nc2ccc(CC(NC(=O)N[C@@H](CCC(=O)O)C(=O)O)C(=O)O)cc2)(CCC(=O)Nc2ccc(C[C@H](NC(=O)NC(CCC(=O)O)C(=O)O)C(=O)O)cc2)NC(=O)CCCCn2cc(CCCF)nn2)cc1)C(=O)O)C(=O)O` (stereo partly drawn) [P285, (2S,2′S)-2,2′-(((((1S,1′S)-(((4-(3-((4-((S)-2-Carboxy-2-(3-((S)-1,3-dicarboxypropyl)ureido)ethyl)phenyl)amino)-3-oxopropyl)-4-(5-(4-(3-fluoropropyl)-1H-1,2,3-triazol-1-yl)pentanamido)heptanedioyl)bis(azanediyl))bis(4,1-phenylene))bis(1-carboxyethane-2,1-diyl))bis(azanediyl))bis(carbonyl))bis(azanediyl))dipentanedioic Acid] showed a pKi of 9.30.

For the compound `O=C(O)CC[C@H](NC(=O)N[C@@H](CCCCNC(=O)c1cc(C(=O)N2CCN(C(=O)Nc3ccc(C[C@H](NC(=O)N[C@@H](CCC(=O)O)C(=O)O)C(=O)O)cc3)CC2)cc(-n2cc(CCCF)nn2)c1)C(=O)O)C(=O)O` [P286, (S)-2-(3-((S)-1-Carboxy-2-(4-(4-(3-(((S)-5-carboxy-5-(3-((S)-1,3-dicarboxypropyl)ureido)pentyl)carbamoyl)-5-(4-(3-fluoropropyl)-1H-1,2,3-triazol-1-yl)benzoyl)piperazine-1-carboxamido)phenyl)ethyl)ureido)pentanedioic Acid], the pKi was 7.90 and the “PSMA Blkg % (1.0 μM)” value is 92%.

For the compound `O=C(O)CCC(NC(=O)N[C@@H](CCCCNC(=O)CCC(CCC(=O)NCCCC[C@H](NC(=O)NC(CCC(=O)O)C(=O)O)C(=O)O)(CCC(=O)NCCCC[C@H](NC(=O)NC(CCC(=O)O)C(=O)O)C(=O)O)NC(=O)c1ccc(-n2cc(CCCF)nn2)cc1)C(=O)O)C(=O)O` (stereo partly drawn) [P287, (3S,7S,25S,29S)-16-(3-(((S)-5-Carboxy-5-(3-((S)-1,3-dicarboxypropyl)ureido)pentyl)amino)-3-oxopropyl)-16-(4-(4-(3-fluoropropyl)-1H-1,2,3-triazol-1-yl)benzamido)-5,13,19,27-tetraoxo-4,6,12,20,26,28-hexaazahentriacontane-1,3,7,25,29,31-hexacarboxylic Acid], the pKi was 9.00 and the “PSMA Blkg % (1.0 μM)” value is recorded as 95%. The matching figures for `NCCOCCOCCOCCOCc1cn(-c2cc(C(=O)NCCCC[C@H](NC(=O)N[C@@H](CCC(=O)O)C(=O)O)C(=O)O)cc(C(=O)NCCCC[C@H](NC(=O)N[C@@H](CCC(=O)O)C(=O)O)C(=O)O)c2)nn1` [P288, (2S,2′S)-2,2′-(((((1S,1′S)-((5-(4-(13-Amino-2,5,8,11-tetraoxatridecyl)-1H-1,2,3-triazol-1-yl)isophthaloyl)bis(azanediyl))bis(1-carboxypentane-5,1-diyl))bis(azanediyl))bis(carbonyl))-bis(azanediyl))dipentanedioic Acid]: 8.01 and 85%. Regarding `[N-]=[N+]=Nc1cc(C(=O)NCCCCCC(=O)N[C@@H](CCC(=O)O)C(=O)O)cc(C(=O)NCCCCCC(=O)N[C@@H](CCC(=O)O)C(=O)O)c1` [P289, (2S,2′S)-2,2′-((6,6′-((5-Azidoisophthaloyl)bis(azanediyl))bis(hexanoyl))-bis(azanediyl))dipentanedioic Acid], the “PSMA Blkg % (1.0 μM)” value was determined as 0%. Still for that read-out and setting: for `O=C(O)CC[C@H](NC(=O)NCCCCCNC(=O)c1cc(C(=O)NCCCCCNC(=O)N[C@@H](CCC(=O)O)C(=O)O)cc(-n2cc(CCCF)nn2)c1)C(=O)O` [P290, (2S,2′S)-2,2′-((((((5-(4-(3-Fluoropropyl)-1H-1,2,3-triazol-1-yl)isophthaloyl)bis(azanediyl))bis(pentane-5,1-diyl))bis(azanediyl))bis(carbonyl))-bis(azanediyl))dipentanedioic Acid] the value was 0%. Regarding `O=C(O)CC[C@H](NC(=O)N[C@@H](Cc1ccc(NC(=O)CCC(CCC(=O)Nc2ccc(C[C@H](NC(=O)N[C@@H](CCC(=O)O)C(=O)O)C(=O)O)cc2)(CCC(=O)Nc2ccc(C[C@H](NC(=O)N[C@@H](CCC(=O)O)C(=O)O)C(=O)O)cc2)NC(=O)Cn2cc(CCCF)nn2)cc1)C(=O)O)C(=O)O` [P291, (2S,2′S)-2,2′-(((((1S,1′S)-((((4S)-4-(3-((4-((2S)-2-Carboxy-2-(3-(1,3-dicarboxypropyl)-ureido)ethyl)phenyl)amino)-3-oxopropyl)-4-(2-(4-(3-fluoropropyl)-1H-1,2,3-triazol-1-yl)acetamido)heptanedioyl)bis(azanediyl))bis(4,1-phenylene))bis(1-carboxyethane-2,1-diyl))bis(azanediyl))bis(carbonyl))bis(azanediyl))dipentanedioic Acid], the negative-log Ki (pKi) is 8.30 and the “PSMA Blkg % (1.0 μM)” value is listed as 95%. On to `O=C(O)CC[C@H](NC(=O)[C@H](CC(=O)O)NC(=O)CCCNC(=O)c1cc(C(=O)NCCCC(=O)N[C@@H](CC(=O)O)C(=O)N[C@@H](CCC(=O)O)C(=O)O)cc([N+](=O)[O-])c1)C(=O)O` [P293, (2S,2′S)-2,2′-(((2S,2′S)-2,2′-((4,4′-((5-Nitroisophthaloyl)bis(azanediyl))bis(butanoyl))-bis(azanediyl))bis(3-carboxypropanoyl))bis(azanediyl))dipentanedioic Acid], for which the “PSMA Blkg % (1.0 μM)” value was 45% and 90%.
